Experimental data reported in patent US9096550B2, “Bryostatin analogues and methods of making and using thereof” (UNIVERSITY OF UTAH RESEARCH FOUNDATION, priority 2008, dated 2015).
Like-named read-outs stand apart in the source and are kept apart here.

Key:
Assay type in all cases: cell-based, human
PKC delta = assay: Phosphorylation of PKC delta at Y311 in LNCaP cells (western blot)
Method: (§1) FIGS. 14A-C show the induction of cFos and phosphorylation of PKC at Y311 in LNCaP cells. […] The proteins from the lysates were separated by 10% SDS-PAGE, electroblotted to nitrocellulose membranes and probed with anti-cFos primary and anti-rabbit secondary antibodies, followed by ECL visualization. Data are representative of four independent experiments. […] The cFos signal was normalized to the β-actin signal to correct for loading and the response induced by 100 nM PMA at 2 hrs was taken as 100%. Data represent the means+SEM of four independent experiments. […] Data represent the means+SEM of three independent experiments.
(§2) LNCaP cells treated for 48 hours with the different drugs or with DMSO as control were washed and re-suspended in phosphate buffered saline. Yo-Pro-1 (Invitrogen, Carlsbad, Calif.) was added to a final concentration of 1 μM and the cells were incubated for 20 min at 4° C. in the dark. 7-Aminoactinomycin D (7-AAD) (Invitrogen, Carlsbad, Calif.) was then added at a 5 μg/mL final concentration 10 minutes before analysis by flow cytometry using the FACSCalibur system (Becton Dickinson, Mountain View, Calif.). Data were analyzed with FlowJo 7 (Tree Star Inc., Ashland, Oreg.). The Yo-Pro-1 positive cells were considered apoptotic and were expressed as % of total cells. […]

cFos = assay: Induction of cFos in LNCaP cells (western blot); conditions: LNCaP cells treated 2, 5 or 8 hrs
Method: as §1, §2

LNCaP cells [1] = assay: Early morphology change (cell flattening) of LNCaP cells by Incucyte imaging
Method: (§3) FIGS. 13A and 13B show the proliferation and morphology of LNCaP cells detected by Incucyte. LNCaP cells were treated with DMSO as control, 300 nM PMA, 1000 nM bryostatin 1 or the bryologue MERLE 21, or with 300 nM PMA in combination with 1000 nM bryostatin 1 or the bryologue MERLE 21. Time-elapsed images were taken by the Incucyte imaging system every hour. […] The arrow indicates the time of treatment. Data are representative of three independent experiments.
The extent of confluency of LNCaP cells (from ATCC, Manassas, Va.) and the morphological changes after treatment were followed in real time using Incucyte (Essen Instruments, Ann Arbor, Mich.). […] The confluency of the cells was calculated by the instrument's program. The proliferation of LNCaP cells was expressed as the difference in cell confluency before and after treatment.
The above measurements were determined at fixed times after compound addition, 80 hr for proliferation and 48 hr for apoptosis. Cell growth was monitored continuously using an Incucyte live cell imaging system. […] At early times (0-6 hrs after treatment), the imaging also detected a transient response, reflecting a change in cell morphology induced by the compounds, superimposed on the slower change in the signal reflecting proliferation. […]

LNCaP cells [2] = assay: Proliferation of LNCaP cells (Incucyte confluency); conditions: for effect on LNCaP cell growth: compound alone, confluency at 80 hrs
Method: FIGS. 12A-D show the effect of different compounds on the proliferation and apoptosis of LNCaP cells. […] Time-elapsed images were taken with an Incucyte imaging system every hour for 4 days. The proliferation of LNCaP cells is presented as increase in confluency (read by the instrument) at 80 hrs. Data represent the means+SEM of three independent experiments. […] Apoptosis was measured 2 days after treatment by flow cytometry using 7-AAD and Yo-Pro-1 as described in Materials and Methods. Data represent the means+SEM of three independent experiments.
as §3
The extent of confluency of LNCaP cells (from ATCC, Manassas, Va.) and the morphological changes after treatment were followed in real time using Incucyte (Essen Instruments, Ann Arbor, Mich.). Images of LNCaP cells plated into 24 well plates were taken every 1 hour by the instrument before and after treatment for a total of 4 days. The confluency of the cells was calculated by the instrument's program. The proliferation of LNCaP cells was expressed as the difference in cell confluency before and after treatment.

Row | SMILES | phosphorylation of PKC delta at Y311 (PKC delta) | time course of cFos induction (cFos) | persistence of cell flattening (early morphological response) (LNCaP cells [1]; LNCaP cells, 0-9 hrs after treatment) | block of the PMA inhibition of LNCaP cell growth (LNCaP cells [2]; 300 nM PMA combined with 1000 nM compound, 80 hrs) | effect on LNCaP cell growth (LNCaP cells [2]) | persistence of cell flattening (early morphological response) (LNCaP cells [1])
1 | CCC/C=C/C=C/C(=O)O[C@H]1/C(=C/C(=O)OC)C[C@H]2C[C@H]([C@@H](C)O)OC(=O)C[C@H](O)C[C@@H]3C[C@H](OC(C)=O)C(C)(C)[C@](O)(C[C@@H]4C/C(=C/C(=O)OC)C[C@H](/C=C/C(C)(C)[C@]1(O)O2)O4)O3 [bryostatin 1] | only very weak phosphorylation | largely lost by 5 hrs | had reversed by 6 hrs after treatment | blocked the inhibition of LNCaP cell growth by PMA | little effect | 
2 | CCCCCCCCCCCCCC(=O)O[C@@H]1[C@@H](C)[C@@]2(O)[C@@H](C=C(CO)C[C@]3(O)C(=O)C(C)=C[C@@H]23)[C@@H]2C(C)(C)[C@]12OC(C)=O [PMA] | rapid phosphorylation | persisted for 5 hrs, with weak induction still evident at 8 hrs |  |  | marked inhibition of cell proliferation | still evident at 6 hrs but reversing by 9 hrs
